{"source": "patent US10131649B2", "about": "“Bicyclic compounds as pest control agents” (BAYER CROPSCIENCE AKTIENGESELLSCHAFT, priority 2014, dated 2018)", "key": {"[1]": {"tested_on": "green peach aphid (Myzus persicae)", "assay": "Myzus persicae spray test (Chinese cabbage leaf discs)", "type": "in vivo", "conditions": "foliar, 144 h, read-out: efficacy in %", "experimental": "Myzus persicae—Spray Test\nSolvent: • 78 parts by weight of acetone • 1.5 parts by weight of dimethylformamide\nEmulsifier: alkylaryl polyglycol ether\nTo produce a suitable preparation of active compound, 1 part by weight of active compound is dissolved using the specified parts by weight of solvent and made up with water containing an emulsifier concentration of 1000 ppm until the desired concentration is attained. To produce further test concentrations, the formulation is diluted with emulsifier-containing water.\nDiscs of Chinese cabbage leaves (Brassica pekinensis) infested by all stages of the green peach aphid (Myzus persicae) are sprayed with an active compound formulation of the desired concentration.\nAfter 6 days, the efficacy in % is determined. 100% means that all the aphids have been killed; 0% means that no aphids have been killed."}, "[2]": {"tested_on": "engorged adult female cattle ticks (Boophilus microplus)", "assay": "Boophilus microplus injection test", "type": "in vivo", "conditions": "application rate 20 μg/animal, assessed after 7 days, 100% = no tick laid fertile eggs", "experimental": "Boophilus microplus—Injection Test\nSolvent: dimethyl sulphoxide\nTo produce a suitable preparation of active compound, 10 mg of active compound are mixed with 0.5 ml of solvent and the concentrate is diluted with solvent to the desired concentration.\n1 μl of the active compound solution is injected into the abdomen of 5 engorged adult female cattle ticks (Boophilus microplus). The animals are transferred into dishes and kept in a climate-controlled room.\nEfficacy is assessed after 7 days by laying of fertile eggs. Eggs which are not externally visibly fertile are stored in a climate-controlled cabinet until the larvae hatch after about 42 days. An efficacy of 100% means that none of the ticks has laid any fertile eggs; 0% means that all the eggs are fertile."}, "[3]": {"assay": "log P by HPLC on reversed-phase columns (OECD Guideline 117), [a] acidic pH 2.7, [b] neutral pH 7.8", "type": "physicochemical", "conditions": "reversed-phase (C18) HPLC column", "experimental": "The log P values were determined in accordance with OECD Guideline 117 (EC Directive 92/69/EEC) by HPLC (high-performance liquid chromatography) using reversed-phase (RP) columns (C18), by the following methods:\n[a] The LC-MS determination in the acidic range is carried out at pH 2.7 with 0.1% aqueous formic acid and acetonitrile (contains 0.1% formic acid) as eluents; linear gradient from 10% acetonitrile to 95% acetonitrile.\n[b] LC-MS determination in the neutral range is effected at pH 7.8 with 0.001 molar aqueous ammonium hydrogencarbonate solution and acetonitrile as eluents; linear gradient from 10% acetonitrile to 95% acetonitrile.\nCalibration is carried out using unbranched alkan-2-ones (having 3 to 16 carbon atoms) with known log P values (log P values determined on the basis of the retention times by linear interpolation between two successive alkanones)."}}, "note": "Where two headings read alike, the source gives them in different places."}
{"smiles": "Cc1cc(F)c(-c2ccc3nn(-c4cccnc4)cc3c2)cc1[S+]([O-])CC(F)(F)F", "note": "(stereo not shown) [Example 52, 5-[2-Fluoro-4-methyl-5-(2,2,2-trifluoroethylsulphinyl)phenyl]-2-(3-pyridyl)indazole]", "values": [{"measurement": "pest or weed control at 500 g/ha", "setting": "[1]", "result": 100, "unit": "%"}, {"measurement": "efficacy (laying of fertile eggs)", "setting": "[2]", "result": 100, "unit": "%"}, {"measurement": "chromatographic logP", "setting": "[3]; acidic pH 2.7, read-out: logP[a]", "result": 2.8}, {"measurement": "chromatographic logP", "setting": "[3]; neutral pH 7.8, read-out: logP[b]", "result": 2.74}]}
